Reference: paper PMC7550323 (Clinical Pharmacokinetics, 2020)

Experiments:
[1] = target: T1, CYP3A4 (Homo sapiens, UniProt P08684); test: Effect of gilteritinib on the pharmacokinetics of midazolam; conditions: for AUC24, GLSM ratio (midazolam + gilteritinib/midazolam alone) / Cmax, GLSM ratio (midazolam + gilteritinib/midazolam alone): 100 indicates no change; for increase in AUC24 on coadministration of gilteritinib with midazolam / increase in Cmax on coadministration of gilteritinib with midazolam: relative to midazolam alone
[2] = target: T1, CYP3A4; test: clinical; conditions: plasma, po, 2 mg
[3] = human, in vivo; cited from earlier work

T1 sequence (P08684 whole entry): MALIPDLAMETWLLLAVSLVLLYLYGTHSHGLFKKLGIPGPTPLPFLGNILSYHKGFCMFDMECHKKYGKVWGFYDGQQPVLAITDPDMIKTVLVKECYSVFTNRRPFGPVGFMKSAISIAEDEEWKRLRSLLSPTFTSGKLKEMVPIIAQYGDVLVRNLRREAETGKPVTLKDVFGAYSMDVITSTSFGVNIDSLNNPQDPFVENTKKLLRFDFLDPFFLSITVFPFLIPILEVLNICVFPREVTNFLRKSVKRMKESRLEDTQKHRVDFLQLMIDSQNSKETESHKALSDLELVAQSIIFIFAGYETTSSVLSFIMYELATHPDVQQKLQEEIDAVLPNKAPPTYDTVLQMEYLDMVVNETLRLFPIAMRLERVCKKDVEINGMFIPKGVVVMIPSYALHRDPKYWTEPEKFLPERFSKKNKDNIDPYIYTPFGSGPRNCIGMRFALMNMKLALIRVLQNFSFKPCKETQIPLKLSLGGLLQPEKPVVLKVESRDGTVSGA

SMILES	AUC24, GLSM ratio (midazolam + gilteritinib/midazolam alone) ([1]; N = 8)	Cmax, GLSM ratio (midazolam + gilteritinib/midazolam alone) ([1]; N = 9)	AUC24, MDZ + gilteritinib (GLSM) ([1]; midazolam 2 mg oral on Cycle 1 Day 15 with gilteritinib 300 mg QD, N = 8)	Cmax, MDZ + gilteritinib (GLSM) ([1]; midazolam 2 mg oral on Cycle 1 Day 15 with gilteritinib 300 mg QD, N = 9)	AUC24, MDZ alone (GLSM) ([1]; midazolam 2 mg oral on Day-1, N = 8)	Cmax, MDZ alone (GLSM) ([1]; midazolam 2 mg oral on Day-1, N = 9)	increase in AUC24 on coadministration of gilteritinib with midazolam [1]	increase in Cmax on coadministration of gilteritinib with midazolam [1]	AUC [2]	Cmax [2]	half-life [3]	increase in exposure when coadministered with itraconazole [3]	increase in exposure when coadministered with ketoconazole [3]	increase in exposure with a high-fat meal [3]
OCc1ncc2n1-c1ccc(Cl)cc1C(c1ccccc1F)=NC2 [1-hydroxymidazolam]	149.9%	123.5%	17.0 ng·h/mL	4.3 ng/mL	11.3 ng·h/mL	3.5 ng/mL	~50%	approximately 23%	–	–	–	–	–	–
Cc1ncc2n1-c1ccc(Cl)cc1C(c1ccccc1F)=NC2 [midazolam, reference compound]	109.5%	111.6%	–	–	–	–	10%	10%	54.3 ng·h/mL	14.3 ng/mL	–	–	–	–
CO[C@@H]1[C@H](N(C)C(=O)c2ccccc2)C[C@H]2O[C@]1(C)n1c3ccccc3c3c4c(c5c6ccccc6n2c5c31)C(=O)NC4 [midostaurin]	–	–	–	–	–	–	–	–	–	–	21 h	2.1 fold	10.4 fold	1.6 fold
